The values that follow come from ChEMBL document CHEMBL1201862, “PubChem BioAssay data set” (2004).

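Five compound concentrations were applied to cells in 96-well plates for 48 hours; endpoints were derived by simple linear interpolation of the resulting dose-response curve. GI50 marks 50% less growth.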 The source made the active and inactive calls. Rule as the data show it: active = GI50 up to about 1.1 µM and inactive = higher.

Assay in all cases: inhibition of tumour cell growth, NCI panel, 48 h
Assay [1] deals with BT-549.
In assay [2] the test system is EKVX.
For assay [3], the system named is Malme-3M.
In assay [4] the test system is OVCAR-3.
Assay [5] relates to SNB-19.
Assay [6] relates to TK-10.
Assay [7] relates to HCT-15.
Assay [8] has as its system MOLT-4.

Turning to `C=C1C(=O)O[C@H]2/C=C(/C)C3=CC(=O)[C@@](C)(C[C@@H](OC(=O)/C(C)=C\C)C12)O3` (stereo partly drawn), the GI50 in assay [1] is 1210 nM (inactive); in assay [2], 1290 nM (inactive); in assay [3] it was 387 nM (active); in assay [4] it was 769 nM (active); in assay [5], 13200 nM (inactive); in assay [6], 649 nM (active).

Turning to `C=C1C(C)C2C(Cc3ccccc3)NC(=O)C23C(OC(C)=O)C=CC(C)(O)C(=O)C(C)C/C=C/C3C1O` (stereo not drawn), the GI50 in assay [7] was 5550 nM; in assay [8] it was 15100 nM (inactive).
